Marks after values point to notes of the source that are not given here.
Key:
Format in all cases: in vivo
[1] = system: Erysiphe graminis f. sp. tritici; assay: Test A: wheat powdery mildew, preventive spray on wheat seedlings, visual disease rating; conditions: 100 = 100% disease control; for pest or weed control at 40 ppm / pest or weed control at 50 ppm: Blumeria graminis, 192 h
Excerpt: (§1) General protocol for preparing test suspensions for Tests A-E: the test compounds were first dissolved in acetone in an amount equal to 11% of the final volume and then suspended at the desired concentration (in ppm) in acetone and purified water (50/50 mix by volume) containing 250 ppm of the surfactant Trem® 014 (polyhydric alcohol esters). The resulting test suspensions were then used in Tests A-E. Spraying a 200 ppm test suspension to the point of run-off on the test plants was the equivalent of a rate of 800 g/ha.
The test suspension was sprayed to the point of run-off on wheat seedlings. The following day the seedlings were inoculated with a spore dust of Erysiphe graminis f. sp. tritici, (the causal agent of wheat powdery mildew) and incubated in a growth chamber at 20° C. for 8 days, after which time disease ratings were visually made.
(§2) Results for Tests A-E are given in Table A. In the Table, a rating of 100 indicates 100% disease control and a rating of 0 indicates no disease control (relative to the controls). A dash (-) indicates no test results. All results are for 200 ppm except where followed by an “*”, which indicates 40 ppm or “**”, which indicates 50 ppm.

[2] = system: Puccinia recondita f sp. tritici; assay: Test B: wheat leaf rust, preventive spray on wheat seedlings, visual disease rating; conditions: 100 = 100% disease control; for pest or weed control at 40 ppm / pest or weed control at 50 ppm: 192 h
Excerpt: as §1
The test suspension was sprayed to the point of run-off on wheat seedlings. The following day the seedlings were inoculated with a spore suspension of Puccinia recondita f sp. tritici (the causal agent of wheat leaf rust) and incubated in a saturated atmosphere at 20° C. for 24 h, and then moved to a growth chamber at 20° C. for 7 days, after which time disease ratings were visually made.
as §2

[3] = system: Septoria tritici; assay: Test C: wheat leaf blotch, preventive spray on wheat seedlings, visual disease rating; conditions: 100 = 100% disease control; for pest or weed control at 40 ppm: Zymoseptoria tritici, 504 h
Excerpt: as §1
(§3) The test suspension was sprayed to the point of run-off on wheat seedlings. The following day the seedlings were inoculated with a spore suspension of Septoria tritici (the causal agent of wheat leaf blotch) and incubated in a saturated atmosphere at 24° C. for 48 h, and then moved to a growth chamber at 20° C. for 19 days, after which time disease ratings were visually made.
as §2

[4] = system: Septoria nodorum; assay: Test D: wheat glume blotch, preventive spray on wheat seedlings, visual disease rating; conditions: 100 = 100% disease control; for pest or weed control at 40 ppm / pest or weed control at 50 ppm: Parastagonospora nodorum, 216 h
Excerpt: as §1
as §3, with “nodorum” for “tritici”, “glume” for “leaf”, “20°” for “24°”, “7” for “19”
as §2

Compound | Test A disease control rating ([1]; 40 ppm (*)) | Test B disease control rating ([2]; 40 ppm (*)) | Test C disease control rating ([3]; 40 ppm (*)) | Test D disease control rating ([4]; 40 ppm (*)) | also measured
COC(=O)NCc1cc(-n2ccc(-c3ccc(C(F)(F)F)cc3C)n2)ccc1C [Cmpd 100] | 99* % | 100* % | 97* % | 100* % | –
COC(=O)NCc1cc(-n2ccc(-c3ccc(C(F)(F)F)cc3OC)n2)ccc1C [Cmpd 101] | 99* % | 100* % | 94* % | 100* % | –
COC(=O)NCc1cc(-n2ccc(-c3ccc(Br)cc3C)n2)ccc1C [Cmpd 102] | 99* % | 100* % | 98* % | 100* % | –
COC(=O)NCc1cc(-n2ncc(-c3ccc(OCC#N)cc3C)n2)ccc1C [Cmpd 105] | 90* % | 99* % | 86* % | 100* % | –
C#CCOc1ccc(-c2cnn(-c3ccc(C)c(CNC(=O)OC)c3)n2)c(C)c1 [Cmpd 106] | 99* % | 100* % | 98* % | 100* % | –
CCOc1ccc(-c2cnn(-c3ccc(C)c(CNC(=O)OC)c3)n2)c(C)c1 [Cmpd 107] | 99* % | 100* % | 99* % | 100* % | –
C#Cc1ccc(-c2ccn(-c3ccc(C)c(CNC(=O)OC)c3)n2)c(C)c1 [Cmpd 112] | 100* % | 100* % | 97* % | 100* % | –
C=Cc1ccc(-c2ccn(-c3ccc(C)c(CNC(=O)OC)c3)n2)c(C)c1 [Cmpd 113] | 40* % | 99* % | 74* % | 100* % | –
CCOc1ccc(-n2ccc(-c3ccc(C)c(CNC(=O)OC)c3)n2)c(C)c1 [Cmpd 120] | – | – | – | – | Test A disease control rating ([1]; 50 ppm (**)): 100** %; Test B disease control rating ([2]; 50 ppm (**)): 100** %; Test C disease control rating ([3]; 50 ppm (**)): 99** %
COC(=O)NCc1cc(-c2ccn(-c3ccc(OC(C)C)cc3C)n2)ccc1C [Cmpd 121] | – | – | – | – | Test A disease control rating ([1]; 50 ppm (**)): 100** %; Test B disease control rating ([2]; 50 ppm (**)): 100** %; Test C disease control rating ([3]; 50 ppm (**)): 98** %
COC(=O)NCc1cc(-c2ccn(-c3ccc(OC4CCCCC4)cc3C)n2)ccc1C [Cmpd 122] | 87* % | 91* % | – | – | –
COC(=O)NCc1cc(-c2ccn(-c3ccc(C(C)(C)C)cc3C)n2)ccc1C [Cmpd 124] | 99* % | 100* % | – | – | –
CCCOc1ccc(-n2ccc(-c3ccc(C)c(CNC(=O)OC)c3)n2)c(C)c1 [Cmpd 125] | 98* % | 100* % | – | – | –
COCCOc1ccc(-n2ccc(-c3ccc(C)c(CNC(=O)OC)c3)n2)c(C)c1 [Cmpd 126] | 87* % | 100* % | – | – | –
COC(=O)NCc1cc(-n2ccc(-c3ccc(C)cc3Br)n2)ccc1C [Cmpd 127] | 100* % | 100* % | 93* % | 100* % | –
CCOc1ccc(-c2ccn(-c3ccc(C)c(CNC(=O)OC)c3)n2)c(C)c1 [Cmpd 128] | 99* % | 100* % | 98* % | 100* % | –
CCOc1cc(F)ccc1-c1ccn(-c2ccc(C)c(CNC(=O)OC)c2)n1 [Cmpd 129] | 98* % | 100* % | 68* % | 100* % | –

Compound | Test A disease control rating ([1]; 40 ppm (*)) | Test B disease control rating ([2]; 40 ppm (*)) | Test C disease control rating ([3]; 40 ppm (*)) | Test D disease control rating ([4]; 40 ppm (*)) | also measured
COC(=O)NCc1cc(-n2ccc(-c3ccc(C)nc3OC)n2)ccc1C [Cmpd 131] | 99* % | 100* % | 97* % | 100* % | –
COC(=O)NCc1cc(-n2ncc(-c3ccc(C(F)(F)F)cc3C(F)(F)F)n2)ccc1C [Cmpd 132] | – | – | – | – | Test A disease control rating ([1]; 50 ppm (**)): 100** %; Test B disease control rating ([2]; 50 ppm (**)): 99** %; Test D disease control rating ([4]; 50 ppm (**)): 100** %
COC(=O)NCc1cc(-c2ccn(-c3ccc(C(C)C)cc3C)n2)ccc1C [Cmpd 133] | – | – | – | – | Test A disease control rating ([1]; 50 ppm (**)): 100** %; Test B disease control rating ([2]; 50 ppm (**)): 100** %; Test D disease control rating ([4]; 50 ppm (**)): 100** %
COC(=O)NCc1cc(-c2ccn(-c3ccc(OCC(C)C)cc3C)n2)ccc1C [Cmpd 134] | – | – | – | – | Test A disease control rating ([1]; 50 ppm (**)): 99** %; Test B disease control rating ([2]; 50 ppm (**)): 100** %; Test D disease control rating ([4]; 50 ppm (**)): 100** %
CCOc1ccc(-c2ccn(-c3ccc(C)c(CNC(=O)OC)c3)n2)c(F)c1 [Cmpd 137] | 100* % | 100* % | 97* % | 100* % | –
CCOc1cc(C)ccc1-c1ccn(-c2ccc(C)c(CNC(=O)OC)c2)n1 [Cmpd 138] | 99* % | 100* % | 95* % | 100* % | –
COC(=O)NCc1cc(-n2ccc(-c3ccc(C(C)=O)cc3C)n2)ccc1C [Cmpd 140] | 91* % | 100* % | 94* % | 100* % | –
COC(=O)NCc1cc(-n2ncc(-c3ccc(Br)cc3OC)n2)ccc1C [Cmpd 141] | 99* % | 100* % | 97* % | 100* % | –
CCOc1ccc(-c2ccn(-c3ccc(C)c(CNC(=O)OC)c3)n2)c(C)n1 [Cmpd 142] | 99* % | 100* % | 99* % | 100* % | –
COC(=O)NCc1cc(-n2ncc(-c3ccc(OC)cc3Br)n2)ccc1C [Cmpd 143] | 99* % | 100* % | 99* % | 100* % | –
COC(=O)NCc1cc(-c2ccn(-c3ccc(C)nc3C)n2)ccc1C [Compound 114, methyl N-[[5-[1-(2,6-dimethyl-3-pyridinyl)-1H-pyrazol-3-yl]-2-methylphenyl]methyl]carbamate] | – | – | – | – | pest or weed control at 40 ppm ([1]; 40 ppm (*)): 90%; pest or weed control at 40 ppm ([2]; 40 ppm (*)): 100%; pest or weed control at 40 ppm ([3]; 40 ppm (*)): 86%; pest or weed control at 40 ppm ([4]; 40 ppm (*)): 100%
COC(=O)NCc1cc(-c2ccn(-c3ccc(OC(F)(F)F)cc3C)n2)ccc1C [Compound 123, methyl N-[[2-methyl-5-[1-[2-methyl-4-(trifluoromethoxy)phenyl]-1H-pyrazol-3-yl]phenyl]methyl]carbamate] | – | – | – | – | pest or weed control at 40 ppm ([1]; 40 ppm (*)): 99%; pest or weed control at 40 ppm ([2]; 40 ppm (*)): 100%
COC(=O)NCc1cc(-n2ccc(-c3ccc(C)nc3C)n2)ccc1C [Compound 130, methyl N-[[5-[3-(2,6-dimethyl-3-pyridinyl)-1H-pyrazol-1-yl]-2-methylphenyl]methyl]carbamate] | – | – | – | – | pest or weed control at 40 ppm ([1]; 40 ppm (*)): 96%; pest or weed control at 40 ppm ([2]; 40 ppm (*)): 99%; pest or weed control at 40 ppm ([3]; 40 ppm (*)): 86%; pest or weed control at 40 ppm ([4]; 40 ppm (*)): 100%
COC(=O)NCc1cc(-n2ncc(-c3ccc(OC)nc3OC)[n+]2[O-])ccc1C [Compound 135] | – | – | – | – | pest or weed control at 50 ppm ([1]; 50 ppm (**)): 99%; pest or weed control at 50 ppm ([2]; 50 ppm (**)): 100%; pest or weed control at 50 ppm ([4]; 50 ppm (**)): 100%
COC(=O)NCc1cc(-n2ncc(-c3ccc(OC)nc3OC)n2)ccc1C [Compound 136, methyl N-[[5-[4-(2,6-dimethoxy-3-pyridinyl)-2H-1,2,3-triazol-2-yl]-2-methylphenyl]methyl]carbamate] | – | – | – | – | pest or weed control at 50 ppm ([1]; 50 ppm (**)): 99%; pest or weed control at 50 ppm ([2]; 50 ppm (**)): 100%; pest or weed control at 50 ppm ([4]; 50 ppm (**)): 100%
methyl N-[[5-[1-(2,6-dimethoxy-3-pyridinyl)-1H-pyrazol-3-yl]-2-methylphenyl]-methyl]carbamate [Compound 116] | – | – | – | – | Test A disease control rating ([1]; 50 ppm (**)): 100** %; Test B disease control rating ([2]; 50 ppm (**)): 100** %; Test C disease control rating ([3]; 50 ppm (**)): 99** %

— patent US20150266850A1 (E.I.DU PONT DE NEMOURS AND COMPANY, priority 2012, published 2015)
